Patent publication US20250353856A1, “COMPOUND ACTIVE AS INHIBITOR OF COLONY STIMULATION FACTOR-1 RECEPTOR (CSF-1R)” (Norwegian University of Science and Technology (NTNU), priority 2022, published 2025)
Where two headings read alike, the source gives them in different places.

Assays:
CSF1R enzyme = CSF1R enzyme (Homo sapiens (Human), UniProt P07333); experiment: CSF1R enzymatic inhibitory assay (Z'-LYTE, FRET); type: biochemical; conditions: Z'-LYTE assay platform, 10-point titrations in duplicates, ATP equal to Km
Sequence of CSF1R enzyme (P07333 20-972): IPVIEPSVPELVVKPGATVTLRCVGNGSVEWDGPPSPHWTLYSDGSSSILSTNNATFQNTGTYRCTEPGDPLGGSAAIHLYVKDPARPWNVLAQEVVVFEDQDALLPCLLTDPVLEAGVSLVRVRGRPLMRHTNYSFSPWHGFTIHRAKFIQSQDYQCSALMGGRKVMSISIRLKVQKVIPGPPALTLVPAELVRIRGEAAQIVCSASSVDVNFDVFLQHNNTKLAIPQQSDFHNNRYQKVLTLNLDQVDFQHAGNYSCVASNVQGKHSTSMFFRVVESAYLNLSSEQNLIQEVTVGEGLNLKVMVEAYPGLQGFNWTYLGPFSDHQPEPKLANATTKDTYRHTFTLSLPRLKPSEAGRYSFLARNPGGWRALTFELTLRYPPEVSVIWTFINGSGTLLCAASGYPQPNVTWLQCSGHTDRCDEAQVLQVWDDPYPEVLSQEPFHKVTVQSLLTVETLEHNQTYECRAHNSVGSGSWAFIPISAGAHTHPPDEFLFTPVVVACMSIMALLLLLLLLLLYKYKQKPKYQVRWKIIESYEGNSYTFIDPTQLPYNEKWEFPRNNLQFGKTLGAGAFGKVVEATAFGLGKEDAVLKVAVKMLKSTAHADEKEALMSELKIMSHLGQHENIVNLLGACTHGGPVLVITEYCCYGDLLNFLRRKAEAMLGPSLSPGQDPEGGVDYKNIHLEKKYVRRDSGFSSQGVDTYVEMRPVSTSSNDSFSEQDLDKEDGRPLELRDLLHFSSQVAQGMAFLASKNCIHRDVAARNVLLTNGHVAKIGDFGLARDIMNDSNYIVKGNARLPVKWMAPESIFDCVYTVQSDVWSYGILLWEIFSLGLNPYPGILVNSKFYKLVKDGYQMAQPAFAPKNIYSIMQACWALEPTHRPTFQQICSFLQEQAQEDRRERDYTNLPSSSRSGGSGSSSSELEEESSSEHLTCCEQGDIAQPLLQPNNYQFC

[1] = molecular target: CSF1R in bone-marrow derived macrophages from mice (Mus musculus (Mouse), UniProt P09581); experiment: Effect of CSF1R inhibitors on MAPK signalling in mouse bone-marrow derived macrophages; type: cell-based; conditions: for BMDM fold relative to PLX3397: Fold change: IC50 inhibitor/IC50 PLX3397, mouse BMDM
Sequence of CSF1R in bone-marrow derived macrophages from mice (P09581 20-977): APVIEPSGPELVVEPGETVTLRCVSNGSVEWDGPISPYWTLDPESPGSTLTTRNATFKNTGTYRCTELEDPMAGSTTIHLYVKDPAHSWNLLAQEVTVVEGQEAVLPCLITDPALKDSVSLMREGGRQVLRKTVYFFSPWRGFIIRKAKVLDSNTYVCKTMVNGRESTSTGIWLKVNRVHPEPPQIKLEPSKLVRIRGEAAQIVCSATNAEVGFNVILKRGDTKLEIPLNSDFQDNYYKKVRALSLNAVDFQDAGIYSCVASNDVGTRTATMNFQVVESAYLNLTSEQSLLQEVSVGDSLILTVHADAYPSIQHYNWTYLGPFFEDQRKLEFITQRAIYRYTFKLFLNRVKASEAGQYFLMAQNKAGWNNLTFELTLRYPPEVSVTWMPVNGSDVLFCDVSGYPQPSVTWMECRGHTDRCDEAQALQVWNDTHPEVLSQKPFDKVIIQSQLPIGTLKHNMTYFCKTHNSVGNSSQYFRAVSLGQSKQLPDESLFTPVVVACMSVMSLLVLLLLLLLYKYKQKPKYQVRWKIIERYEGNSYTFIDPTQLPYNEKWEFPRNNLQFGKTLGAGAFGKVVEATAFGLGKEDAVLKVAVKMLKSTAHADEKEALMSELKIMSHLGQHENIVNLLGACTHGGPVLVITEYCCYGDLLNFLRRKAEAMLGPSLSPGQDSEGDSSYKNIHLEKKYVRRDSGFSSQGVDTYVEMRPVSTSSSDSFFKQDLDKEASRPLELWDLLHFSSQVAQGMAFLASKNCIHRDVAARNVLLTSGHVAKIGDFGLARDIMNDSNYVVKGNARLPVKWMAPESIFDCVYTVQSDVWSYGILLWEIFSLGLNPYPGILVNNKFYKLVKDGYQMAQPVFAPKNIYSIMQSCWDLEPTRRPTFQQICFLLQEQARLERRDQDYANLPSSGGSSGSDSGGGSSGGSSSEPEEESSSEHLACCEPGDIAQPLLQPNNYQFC

| IC50 (CSF1R enzyme) [nM] | BMDM fold relative to PLX3397 [1] [fold] | IC50 ([1]; read-out: BMDM IC50) [nM] | Compound | IC50 [1] [nM] |
| --- | --- | --- | --- | --- |
| 1.3 | 1 | 130 | OCc1ccc(-c2cc3c(Cc4ccccc4)ncnc3[nH]2)cc1 [Compound 5a, (4-(4-Benzyl-7H-pyrrolo[2,3-d]pyrimidin-6-yl)phenyl)methanol] |  |
| 0.7 | 5 | 487 | OCc1ccc(-c2cc3c(Cc4ccccc4F)ncnc3[nH]2)cc1 [Compound 5b, (4-(4-(2-Fluorobenzyl)-7H-pyrrolo[2,3-d]pyrimidin-6-yl)phenyl)methanol] |  |
| 1.9 | >5 | > 500 | OCc1ccc(-c2cc3c(Cc4cccc(F)c4)ncnc3[nH]2)cc1 [Compound 5c, (4-(4-(3-Fluorobenzyl)-7H-pyrrolo[2,3-d]pyrimidin-6-yl)phenyl)methanol] |  |
| 3.1 | 4.1 | 320 | OCc1ccc(-c2cc3c(Cc4ccc(F)cc4)ncnc3[nH]2)cc1 [Compound 5d, (4-(4-(4-Fluorobenzyl)-7H-pyrrolo[2,3-d]pyrimidin-6-yl)phenyl)methanol] |  |
| 1 | >3 | > 300 | Cc1ccc(Cc2ncnc3[nH]c(-c4ccc(CO)cc4)cc23)cc1 [Compound 5e, (4-(4-(4-Methylbenzyl)-7H-pyrrolo[2,3-d]pyrimidin-6-yl)phenyl)methanol] |  |
| 0.6 | 0.8 | 71 | CC(C)c1ccc(Cc2ncnc3[nH]c(-c4ccc(CO)cc4)cc23)cc1 [Compound 5f, (4-(4-(4-Isopropylbenzyl)-7H-pyrrolo[2,3-d]pyrimidin-6-yl)phenyl)methanol] |  |
| 1.6 | 1.7 | 174 | CC(C)(C)c1ccc(Cc2ncnc3[nH]c(-c4ccc(CO)cc4)cc23)cc1 [Compound 5g, (4-(4-(4-(tert-Butyl)benzyl)-7H-pyrrolo[2,3-d]pyrimidin-6-yl)phenyl)methanol] |  |
| 3.6 | >5 | > 500 | OCc1ccc(-c2cc3c(Cc4ccc(C(F)(F)F)cc4)ncnc3[nH]2)cc1 [Compound 5h, (4-(4-(4-(Trifluoromethyl)benzyl)-7H-pyrrolo[2,3-d]pyrimidin-6-yl)phenyl)methanol] |  |
| 3.8 | >5 | > 500 | CC(c1ccccc1)c1ncnc2[nH]c(-c3ccc(CO)cc3)cc12 (centres unmarked) [Compound 5i, (4-(4-(1-Phenylethyl)-7H-pyrrolo[2,3-d]pyrimidin-6-yl)phenyl)methanol] |  |
| 29 | >5 | > 500 | CCC(c1ccccc1)c1ncnc2[nH]c(-c3ccc(CO)cc3)cc12 (centres unmarked) [Compound 5j, (4-(4-(1-Phenylpropyl)-7H-pyrrolo[2,3-d]pyrimidin-6-yl)phenyl)methanol] |  |
| 2.7 | 1.3 | 100 | OCc1ccc(-c2cc3c(C(F)c4ccccc4)ncnc3[nH]2)cc1 (centres unmarked) [Compound 5k, (4-(4-(Fluoro(phenyl)methyl)-7H-pyrrolo[2,3-d]pyrimidin-6-yl)phenyl)methanol] |  |

The next lines start with the compound.

| Compound | IC50 (CSF1R enzyme) [nM] | BMDM fold relative to PLX3397 [1] [fold] | IC50 ([1]; read-out: BMDM IC50) [nM] | IC50 [1] [nM] |
| --- | --- | --- | --- | --- |
| OCc1ccc(-c2cc3c(Oc4ccccc4)ncnc3[nH]2)cc1 [Compound 9, (4-(4-Phenoxy-7H-pyrrolo[2,3-d]pyrimidin-6-yl)phenyl)methanol] | 1.5 | 1 | 107 |  |
| COc1ccc(-c2cc3c(Cc4ccccc4)ncnc3[nH]2)cc1 [Compound 10, 4-Benzyl-6-(4-methoxyphenyl)-7H-pyrrolo[2,3-d]pyrimidine] | 11 |  |  |  |
| CS(=O)(=O)Nc1ccc(-c2cc3c(Cc4ccccc4)ncnc3[nH]2)cc1 [Compound 14, N-(4-(4-Benzyl-7H-pyrrolo[2,3-d]pyrimidin-6-yl)phenyl)methanesulfonamide] | 2.1 |  |  |  |
| c1ccc(Cc2ncnc3[nH]c(-c4ccccc4)cc23)cc1 [Compound 15, 4-Benzyl-6-phenyl-7H-pyrrolo[2,3-d]pyrimidine] | 7.2 |  |  |  |
| CNS(=O)(=O)c1ccc(-c2cc3c(Cc4ccccc4)ncnc3[nH]2)cc1 [Compound 16, 4-(4-Benzyl-7H-pyrrolo[2,3-d]pyrimidin-6-yl)-N-methylbenzenesulfonamide] | 1.7 |  |  |  |
| CC(C)n1cc(-c2cc3c(Cc4ccccc4)ncnc3[nH]2)cn1 [Compound 17, 4-Benzyl-6-(1-isopropyl-1H-pyrazol-4-yl)-7H-pyrrolo[2,3-d]pyrimidine] | 2 |  |  |  |
| Cc1nn(C)cc1-c1cc2c(Cc3ccccc3)ncnc2[nH]1 [Compound 18, 4-Benzyl-6-(1,3-dimethyl-1H-pyrazol-4-yl)-7H-pyrrolo[2,3-d]pyrimidine] | 0.4 |  |  |  |
| CP(C)(=O)c1ccc(-c2cc3c(Cc4ccccc4)ncnc3[nH]2)cc1 [Compound 19, (4-(4-Benzyl-7H-pyrrolo[2,3-d]pyrimidin-6-yl)phenyl)dimethylphosphine oxide] | 1.5 |  |  |  |
| FC(F)(F)c1ccc(CNc2ccc(Cc3c[nH]c4ncc(Cl)cc34)cn2)cn1 [PLX3397, reference compound] |  |  |  | 70 to 150 |
